Tests used:
[1] = molecular target: T1, hNpr1 (Homo sapiens, UniProt P16066); test: qHTS GloSensor cGMP assay, hNppa-stimulated HEK-hNpr1-cGMP-sensor cells (1536-well); type: cell-based; conditions: for Imax, HEK-hNpr1-cGMP-sensor cells: −100% = 38.3 μM A-71915
T1 sequence (P16066 33-1061): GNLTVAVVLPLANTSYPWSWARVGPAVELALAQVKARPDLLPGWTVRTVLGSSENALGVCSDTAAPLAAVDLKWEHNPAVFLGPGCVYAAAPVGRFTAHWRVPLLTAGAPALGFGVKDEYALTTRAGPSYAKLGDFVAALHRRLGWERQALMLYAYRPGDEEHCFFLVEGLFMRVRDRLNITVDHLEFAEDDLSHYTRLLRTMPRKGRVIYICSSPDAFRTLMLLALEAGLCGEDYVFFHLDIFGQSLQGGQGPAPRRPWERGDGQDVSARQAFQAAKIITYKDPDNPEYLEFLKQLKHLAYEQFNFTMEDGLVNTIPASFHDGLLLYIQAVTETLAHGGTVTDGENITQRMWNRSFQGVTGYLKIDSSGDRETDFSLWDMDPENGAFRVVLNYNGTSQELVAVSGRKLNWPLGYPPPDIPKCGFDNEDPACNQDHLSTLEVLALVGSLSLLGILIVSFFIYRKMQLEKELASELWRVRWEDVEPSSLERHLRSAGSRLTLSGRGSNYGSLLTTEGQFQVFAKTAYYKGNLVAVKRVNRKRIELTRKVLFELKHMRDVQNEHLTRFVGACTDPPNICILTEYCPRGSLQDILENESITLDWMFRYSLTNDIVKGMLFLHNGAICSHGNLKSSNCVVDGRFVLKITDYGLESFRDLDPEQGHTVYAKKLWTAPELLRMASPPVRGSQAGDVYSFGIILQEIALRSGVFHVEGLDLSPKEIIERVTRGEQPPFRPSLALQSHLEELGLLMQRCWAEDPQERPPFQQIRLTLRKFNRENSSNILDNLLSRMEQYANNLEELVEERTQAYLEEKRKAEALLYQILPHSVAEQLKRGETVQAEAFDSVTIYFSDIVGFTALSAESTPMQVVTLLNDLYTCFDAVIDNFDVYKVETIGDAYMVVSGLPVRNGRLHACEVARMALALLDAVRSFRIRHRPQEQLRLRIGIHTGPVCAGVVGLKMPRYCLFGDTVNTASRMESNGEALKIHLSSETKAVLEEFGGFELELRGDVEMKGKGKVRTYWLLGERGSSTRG
Description: In order to identify small molecular compounds that inhibit the Npr1 receptor a high-throughput assay to probe inhibition of the receptor guanylate cyclase Npr1 was developed. The assay was designed taking advantage of Promega's GloSensor™ technology (Promega, Madison, Wis.). This technology involves the expression of a cyclic guanosine monophosphate (cGMP) biosensor, comprised of a firefly luciferase variant that was coupled to the cGMP binding domain of human phosphodiesterase 5A, and loading of cells with a cell-permeable luciferase substrate to monitor cGMP production by Npr1 in real time in live cells. Briefly, human embryonic kidney 293 cells stably expressing the human Npr1 and the pGloSensor™-40F cGMP vector (“pGloSensor™-40F”) were generated. Stimulating these cells with the Npr1 agonists human NppA or NppB, luciferase-induced light production could be detected in a dose-dependent manner. HEK293 cells stably expressing human Npr2 and pGS-40F and cells only expressing pGS-40F were also generated to conduct secondary counter screens. In these cells, NppC or sodium nitroprusside were used to stimulate Npr2 or soluble guanylate cyclase which is endogenously expressed in HEK293 cells, respectively. The Npr2-NppC counter screen was employed to search for agents that minimally effected this agonist-receptor interaction. The Npr2-NppC system was used because the side effects of most drugs occur on related receptors. Npr1 and Npr2 are the most related receptors in sequence and function and there are no additional active receptor subtypes in this family of receptors. The procedure is described in detail below.
Measurement of intracellular cGMP production in HEK-hNpr1-cGMP-sensor cells was scaled to 4 μl volumes in 1536-well format and primary screening was performed in an automated manner in 7- to 11-point qHTS. Cells (1.5×10^3) were plated in assay medium in white, solid bottom TC treated 1536-well plates (Greiner Bio-One) with a Multidrop™ Combi Reagent Dispenser (Thermo Fisher Scientific). Cells were incubated at 37° C., 5% CO2 and 95% humidity for 16 hours and 1 μl of GloSensor™ reagent at a final assay concentration of 2% or assay medium as background control was added to respective wells with a BioRAPTR Flying Reagent Dispenser™ (Beckman Coulter, Schaumburg, Ill.). Cells were incubated at room temperature for 2 hours, protected from light. Compound (23 nl) was transferred by a pintool (Kalypsys, San Diego, Calif.) in the concentration range of […] to 46.1 μM along with DMSO and a titration of A-71915 from top concentration 38.3 μM to 1.7 nM in columns 1-4 of each plate as vehicle and positive controls, respectively. Cells were incubated with compound for 30 minutes at room temperature, protected from light. Pre-agonist luminescence for each plate was read on a ViewLux™ plate reader (PerkinElmer). Human NppA (1 μl) at a final assay concentration of 0.1 nM, or C02-independent media were added to respective wells with a BioRAPTR Flying Reagent Dispenser™ (Beckman Coulter). Plates were incubated for 20 minutes at room temperature, protected from light, and luminescence was read on a ViewLux™ plate reader.
Pre-agonist and post-agonist data were normalized by plate to corresponding intra-plate controls as described in Inglese et al., PNAS USA, 103: 11473-11478 (2006) (which is incorporated herein by reference, in its entirety). Assay statistics including S:N and Z′ were calculated using the same respective controls. Pre-agonist data were normalized to the average signal of DMSO-treated wells with 2% GoSensor™ reagent as 0% and the average signal of DMSO-treated wells with assay medium as −100% activity. Post-agonist data were normalized to the average signal of DMSO-treated wells with 2% GoSensor™ reagent and 0.1 nM hNppA as 0% and the average signal of wells treated with 38.3 μM A-71915 with 2% GloSensor™ reagent and 0.1 nM hNppA as −100% activity. […]

[2] = molecular target: T1, hNpr1; test: Cell-free hNpr1 membrane cyclase assay (cGMP ELISA); type: biochemical; conditions: for Ki: calculated with Cheng-Prusoff equation from Table 4, read-out: Ki hNpr1 cyclase assay [μM] (mean ± SEM)
[3] = Table 1, cell-based GloSensor assay of hNpr1 inhibition, read-out: IC50 GloSensor™ assay
[4] = qHTS follow-up, hNppa-stimulated, four-parameter fit, read-out: IC50, HEK-hNpr1-cGMP-sensor cells
[5] = qHTS follow-up, hNppa-stimulated
[6] = Table 1, biochemical assay, read-out: IC50 biochem assay
[7] = membranes of HEK-hNpr1-cGMP-sensor cells, hNppa-stimulated
[8] = membranes of HEK-hNpr1-cGMP-sensor cells, hNppa-stimulated, read-out: IC50 [μM] (mean ± SEM), membrane cyclase assay

Question: What does the source list for N#Cc1ccccc1CN1CCCC(C(=O)NCc2ccccc2)CCNC(=O)CC1 (stereo not drawn) [JS-13, N-benzyl-1-(2-cyanobenzyl)-4-oxo-1,5-diazacycloundecane-8-carboxamide]?
Answer: IC50 [1, 3]: 3.98 µM; IC50 [1, 4]: 10 ± 1.2 µM; Imax, HEK-hNpr1-cGMP-sensor cells [1, 5]: −99 ± 6%; IC50 [2, 6]: 1.19 µM; Ki [2]: 0.12 ± 0.13 µM; Imax [%] (mean ± SEM), membrane cyclase assay [2, 7]: −94.4 ± 5.4%; IC50 [2, 8]: 0.8 ± 0.9 µM

Question: Which IC50 [1, 3] does the source give for COc1cc(CN2CCC(C)(NC(C)=O)CC2)cc(-c2ccncc2)c1 [JS-4, N-(1-(3-methoxy-5-(pyridin-4-yl)benzyl)-4-methylpiperidin-4-yl)acetamide] here?
Answer: 14.1 µM

Question: What about the IC50 [1, 4] of the same molecule?
Answer: 16 ± 13 µM

Question: What about the “Imax, HEK-hNpr1-cGMP-sensor cells” value [1, 5] of the same molecule?
Answer: −110 ± 10%

Question: And the IC50 [2, 6]?
Answer: 2.2 µM

Question: And the Ki [2]?
Answer: 0.41 ± 0.006 µM

Question: What about the “Imax [%] (mean ± SEM), membrane cyclase assay” value [2, 7] of the same molecule?
Answer: −96.1 ± 3.7%

Question: What about the IC50 [2, 8] of the same molecule?
Answer: 2.8 ± 0.04 µM

Question: For CCC(CC)c1cc([C@H]2CN3CC[C@H]2C[C@@H]3CNS(=O)(=O)c2cccs2)nc(-c2ccncc2)n1 [JS-3, N-(((2R,4S,5R)-5-(6-(pentan-3-yl)-2-(pyridin-4-yl)pyrimidin-4-yl)quinuclidin-2-yl)methyl)thiophene-2-sulfonamide], which IC50 [1, 3] is on record?
Answer: 14.1 µM

Question: What about the IC50 [1, 4] of the same molecule?
Answer: 62 ± 19 µM

Question: What about the “Imax, HEK-hNpr1-cGMP-sensor cells” value [1, 5] of the same molecule?
Answer: −183 ± 67%

Question: What about the IC50 [2, 6] of the same molecule?
Answer: 3.98 µM

Question: And the Ki [2]?
Answer: 0.58 ± 0.179 µM

Question: What about the “Imax [%] (mean ± SEM), membrane cyclase assay” value [2, 7] of the same molecule?
Answer: −98.2 ± 1.8%

Question: What about the IC50 [2, 8] of the same molecule?
Answer: 4 ± 1.2 µM
